This is an account of results in patent US9137998B2, “Pesticidal compositions and related methods” (DOW AGROSCIENCES LLC, priority 2013, dated 2015).

In series [1] the test system is Green Peach Aphid (Myzus persicae) (GPA) (MYZUPE). Description: Bioassay for Green Peach Aphid (GPA), foliar spray on cabbage seedlings. The class given is in vivo. The following applies: 200 ppm foliar spray, graded after three days, Abbott corrected % control; for mortality at 200 ppm: Myzus persicae, 72 h, read-out: % Control (or Mortality) rating, GPA. As for the experimental part: Cabbage seedlings grown in 3-inch pots, with 2-3 small (3-5 cm) true leaves, were used as test substrate. The seedlings were infested with 20-50 GPA (wingless adult and nymph stages) one day prior to chemical application. Four pots with individual seedlings were used for each treatment. Test compounds (2 mg) were dissolved in 2 mL of acetone/methanol (1:1) solvent, forming stock solutions of 1000 ppm test compound. The stock solutions were diluted 5× with 0.025% Tween 20 in H2O to obtain the solution at 200 ppm test compound. A hand-held aspirator-type sprayer was used for spraying a solution to both sides of […] leaves until runoff. Reference plants (solvent check) were sprayed with the diluent only containing 20% by volume of acetone/methanol (1:1) solvent. Treated plants were held in a holding room for three days at approximately 25° C. and ambient relative humidity (RH) prior to grading. Evaluation was conducted by counting the number of live aphids per plant under a microscope. Percent control was measured by using Abbott's correction formula (W. S. Abbott, “A Method of Computing the Effectiveness of an Insecticide” J. Econ. Entomol. 18 (1925), pp. 265-267) as follows. Corrected % Control=100*(X−Y)/X
X=No. of live aphids on solvent check plants and
Y=No. of live aphids on treated plants
Biological Data for Green Peach Aphid (GPA) (MYZUPE) and Sweetpotato Whitefly-crawler (WF) (BEMITA)” (See Table Section).

Series [2] deals with Sweetpotato Whitefly-Crawler (Bemisia tabaci) (WF) (BEMITA). The series can be described thus: Insecticidal test for Sweetpotato Whitefly-crawler (WF) in foliar spray assay on cotton plants. As to conditions: 200 ppm foliar spray, graded after 9 days, Abbott corrected % control; for mortality at 200 ppm: Bemisia tabaci, 216 h, read-out: % Control (or Mortality) rating, WF. The format is in vivo. The protocol:
Cotton plants (Gossypium hirsutum) grown in 3-inch pots, with 1 small (4-5 cm) true leaves, were used as test substrate. The plants were infested with 200-400 whitefly eggs 4-5 days prior to chemical application. Four pots with individual plants were used for each treatment. Test compounds (2 mg) were dissolved in 1 mL of acetone solvent, forming stock solutions of 2000 ppm test compound. The stock solutions were diluted 10× with 0.025% Tween 20 in H2O (diluents) to obtain the solution at 200 ppm test compound. A hand-held aspirator-type sprayer was used for spraying a solution to both sides of cotton leaves until runoff. Reference plants (solvent check) were sprayed with the diluent only containing 10% by volume of acetone solvent. Treated plants were held in a holding room for 9 days at approximately 25° C. and ambient relative humidity (RH) prior to grading. Evaluation was conducted by counting the number of live 3-4 nymph stage per plant under a microscope. Percent control was measured by using Abbott's correction formula (W. S. Abbott, “A Method of Computing the Effectiveness of an Insecticide” J. Econ. Entomol. 18 (1925), pp. 265-26′7) as follows. Corrected % Control=100*(X−Y)/X
X=No. of live nymphs on solvent check plants and
Y=No. of live nymphs on treated plants. […]

The term mortality denotes the percentage killed.

With “2-Methyl-N-(4-methyl-2-(pyridin-3-yl)thiazol-5-yl)-3-(methylsulfinyl)-N-(prop-2-yn-1-yl) propanamide [Compound P5]”, the “% Control (or Mortality) rating, GPA” value in series [1] is given as “A (80-100)”. Besides, the “% Control (or Mortality) rating, WF” value in series [2] was “A (80-100)”. “4-Chloro-2-(5-fluoropyridin-3-yl)-N-(prop-2-yn-1-yl)thiazol-5-amine hydrochloride [CA1]”: the “% Control (or Mortality) rating, GPA” value in series [1] is given as “B (More than 0-Less than 80)”. The “% Control (or Mortality) rating, WF” value in series [2] is given as “B (More than 0-Less than 80)”. In the case of “4-Chloro-N-(prop-2-yn-1-yl)-2-(pyrimidin-5-yl)thiazol-5-amine hydrochloride [CA2]”, the “% Control (or Mortality) rating, GPA” value in series [1] is “B (More than 0-Less than 80)”. In addition, in series [2], the “% Control (or Mortality) rating, WF” value is listed as “B (More than 0-Less than 80)”. For the molecule `C#CCN(C(=O)OC(C)(C)C)c1sc(Cl)nc1Cl` [CA3, tert-butyl (2,4-dichlorothiazol-5-yl)(prop-2-yn-1-yl)carbamate], the mortality at 200 ppm in series [1] was less than 0%.

Consider `C#CC(C)N(C(=O)OC(C)(C)C)c1sc(Br)nc1C` (stereo not drawn) [CA5, tert-butyl (2-bromo-4-methylthiazol-5-yl)(but-3-yn-2-yl)carbamate], for which the mortality at 200 ppm in series [1] and in series [2] was 0 to 80% throughout. As for `CC#CCN(C(=O)OC(C)(C)C)c1sc(Br)nc1C` [CA6, tert-Butyl (2-bromo-4-methylthiazol-5-yl)(but-2-yn-1-yl)carbamate], the mortality at 200 ppm in series [1] was 0 to 80%; in series [2], less than 0%. The like results for `C#CCN(C(=O)OC(C)(C)C)c1sc(-c2cccnc2)nc1C` [CA7, tert-Butyl (4-methyl-2-(pyridin-3-yl)thiazol-5-yl)(prop-2-yn-1-yl) carbamate] were, in that order, 80 to 100% and 80 to 100%.

Regarding `C#CCN(C(=O)OC(C)(C)C)c1sc(-c2cncc(F)c2)nc1C` [CA8, tert-Butyl (2-(5-fluoropyridin-3-yl)-4-methylthiazol-5-yl)(prop-2-yn-1-yl) carbamate], the values for the mortality at 200 ppm in series [1] and in series [2] were 0 to 80% and 80 to 100%, respectively. The matching figures for `C#CCN(C(=O)OC(C)(C)C)c1sc(-c2cncc(F)c2)nc1Cl` [CA9, tert-Butyl (4-chloro-2-(5-fluoropyridin-3-yl)thiazol-5-yl)(prop-2-yn-1-yl) carbamate]: 80 to 100% and 80 to 100%. The like results for `C#CC(C)N(C(=O)OC(C)(C)C)c1sc(-c2cccnc2)nc1C` (stereo not drawn) [CA12, tert-Butyl but-3-yn-2-yl(4-methyl-2-(pyridin-3-yl)thiazol-5-yl)carbamate] were, in that order, 80 to 100% and 80 to 100%. The matching figures for `C#CCNc1sc(-c2cccnc2)nc1C` [CA14, 4-Methyl-N-(prop-2-yn-1-yl)-2-(pyridin-3-yl)thiazol-5-amine]: 0 to 80% and 0 to 80%. In the case of `C#CCN(C(=O)OC(C)(C)C)c1sc(-c2cccnc2)nc1Cl` [Compound C3, tert-butyl (4-chloro-2-(pyridin-3-yl)thiazol-5-yl)(prop-2-yn-1-yl)carbamate], the mortality at 200 ppm in series [1] and in series [2] was 80 to 100% each time. As to `C#CCN(C(=O)C1CC1)c1sc(-c2cccnc2)nc1Cl` [Compound F2, N-(4-Chloro-2-(pyridin-3-yl)thiazol-5-yl)-N-(prop-2-yn-1-yl)cyclopropane carboxamide], the mortality at 200 ppm in series [1] and in series [2] was 80 to 100% each time.

On to `C#CCN(C(=O)CC(SC)C(F)(F)F)c1sc(-c2cccnc2)nc1Cl` (stereo not drawn) [Compound F3, N-(4-Chloro-2-(pyridin-3-yl)thiazol-5-yl)-4,4,4-trifluoro-3-(methylthio)-N-(prop-2-yn-1-yl) butanamide], for which the mortality at 200 ppm in series [1] and in series [2] was 80 to 100% throughout.

Consider `C#CCN(C(=O)CSC)c1sc(-c2cccnc2)nc1Cl` [Compound F4, N-(4-Chloro-2-(pyridin-3-yl)thiazol-5-yl)-2-(methylthio)-N-(prop-2-yn-1-yl)acetamide], for which the mortality at 200 ppm in series [1] and in series [2] was 80 to 100% each time.

As to `C#CCN(C(=O)C1CC1(F)F)c1sc(-c2cccnc2)nc1Cl` (stereo not drawn) [Compound F5, N-(4-chloro-2-(pyridin-3-yl)thiazol-5-yl)-2,2-difluoro-N-(prop-2-yn-1-yl)cyclopropanecarboxamide], the mortality at 200 ppm in series [1] and in series [2] was 80 to 100% throughout.

On to `C#CCN(C(=O)C(C)SC)c1sc(-c2cccnc2)nc1Cl` (stereo not drawn) [Compound F6, N-(4-chloro-2-(pyridin-3-yl)thiazol-5-yl)-2-(methylthio)-N-(prop-2-yn-1-yl)propanamide], for which the mortality at 200 ppm in series [1] and in series [2] was 80 to 100% in each case. In the case of `C#CCN(C(=O)CCSC)c1sc(-c2cccnc2)nc1Cl` [Compound F7, N-(4-chloro-2-(pyridin-3-yl)thiazol-5-yl)-3-(methylthio)-N-(prop-2-yn-1-yl)propanamide], the mortality at 200 ppm in series [1] and in series [2] was 80 to 100% in each case. For `C#CCN(C(=O)CCSCC1CC1(F)F)c1sc(-c2cccnc2)nc1Cl` (stereo not drawn) [Compound F8, N-(4-Chloro-2-(pyridin-3-yl)thiazol-5-yl)-3--(((2,2-difluorocyclopropyl)methyl)thio)-N-(prop-2-yn-1-yl)propanamide], the mortality at 200 ppm in series [1] and in series [2] was 80 to 100% throughout.

On to `C#CCN(C(=O)C(C)CSC)c1sc(-c2cccnc2)nc1Cl` (stereo not drawn) [Compound F9, N-(4-chloro-2-(pyridin-3-yl)thiazol-5-yl)-2-methyl-3-(methylthio)-N-(prop-2-yn-1-yl)propanamide], for which the mortality at 200 ppm in series [1] and in series [2] was 80 to 100% each time. For the molecule `C#CCN(C(=O)CCSC)c1sc(-c2cccnc2)nc1C` [Compound P1, N-(4-Methyl-2-(pyridin-3-yl)thiazol-5-yl)-3-(methylthio)-N-(prop-2-yn-1-yl)propanamide], the mortality at 200 ppm in series [1] and in series [2] was 80 to 100% throughout. For the molecule `C#CCN(C(=O)C(C)CSC)c1sc(-c2cccnc2)nc1C` (stereo not drawn) [Compound P2, 2-Methyl-N-(4-methyl-2-(pyridin-3-yl)thiazol-5-yl)-3-(methylthio)-N-(prop-2-yn-1-yl) propanamide], the mortality at 200 ppm in series [1] and in series [2] was 80 to 100% each time. For `C#CCN(C(=O)CC[S+](C)[O-])c1sc(-c2cccnc2)nc1C` (stereo not drawn) [Compound P3, N-(4-Methyl-2-(pyridin-3-yl)thiazol-5-yl)-3-(methylsulfinyl)-N-(prop-2-yn-1-yl)propanamide], the mortality at 200 ppm in series [1] and in series [2] was 80 to 100% throughout.

In the case of `C#CCN(C(=O)CCS(C)(=O)=O)c1sc(-c2cccnc2)nc1C` [Compound P4, N-(4-Methyl-2-(pyridin-3-yl)thiazol-5-yl)-3-(methylsulfonyl)-N-(prop-2-yn-1-yl)propanamide], the mortality at 200 ppm in series [1] and in series [2] was 80 to 100% each time.

With `C#CCN(C(=O)CCSCCC(F)(F)F)c1sc(-c2cccnc2)nc1C` [Compound P6, N-(4-Methyl-2-(pyridin-3-yl)thiazol-5-yl)-N-(prop-2-yn-1-yl)-3-((3,3,3-trifluoropropyl)thio) propanamide], in series [2], the mortality at 200 ppm lay in the range of 80 to 100%.
